Data on one molecule can be found in patent US20180282339A1 (OLON S.P.A., priority 2015, published 2018).

SMILES strings stand for the structures.

The conditions of this data set: conditions not specified at this place, b45 (heating at 60-120 ° C. for 1-12 hours gives amorphous form). The procedure: In particular the following tests have been made: • stability at 25° C./40% Relative Humidity for 7 days • stability at 40° C./75% Relative Humidity for 7 days • stability at 25° C./60% Relative Humidity for 7 days • stability at 60° C./40% Relative Humidity for 7 days

Turning to `C=CC(=O)N1CCC[C@@H](n2nc(-c3ccc(Oc4ccccc4)cc3)c3c(N)ncnc32)C1` [Form L, 1-[(3R)-3-[4-amino-3-(4-phenoxyphenyl)-1H-pyrazolo[3,4-d]pyrimidin-1-yl]piperidin-1-yl]prop-2-en-1-one], the “solid form conversion in some conditions” value is listed as “converts in Form A or in the amorphous form”.
